A short description of data set [1]: Particle size d90 by laser light scattering (Malvern Mastersizer MS 2000). It is filed as physicochemical. The conditions noted are these: particles after crystallization and Jetmill MC-50 micronization. The source says:
As used herein d90<x means that at least 90% by volume of the particles have a particle size below x. The particle size can be determined by laser light scattering for instance using a Malvern Mastersizer Apparatus MS 2000 equipped with a Hydro S dispersion unit. Silicon fluid F10 may be used as dispersion medium.

A short description of data set [2]: Dissolution test of Dronedarone HCl 400 mg tablets (Apparatus 2 paddle). Type of data set: physicochemical. The conditions noted are these: at 60 minutes, paddle 75 rpm, 1000 ml Buffer Solution pH 4.5. The method, then:
The dissolution profiles of several of the pharmaceutical compositions exemplified above are determined.
Dissolution conditions for Dronedarone HCl 400 mg tablets: • Apparatus: 2 - Paddle (USP and Ph. Eur.) • Rotation speed: 75 rpm • Medium: 1000 ml Buffer Solution pH 4.5
API 1 or API 2 was included in the pharmaceutical composition as disclosed in example 17.
The pharmaceutical compositions used in dissolution test shown in Figure 2 comprised different surfactants or no surfactant. The pharmaceutical compositions were prepared according to examples 16A-D, 17A and 18A by using API 1, API 2 or API 3.

The nature of data set [3]: Specific surface area of dronedarone HCl particles (BET method). It is filed as physicochemical. The conditions noted are these: particles after crystallization and Jetmill MC-50 micronization. The source says: The specific surface area can be determined using the BET method.
For data set [4] the following is noted: aqueous media, pH 3-5 (maximal); cited from earlier work.

Where a name gives a salt, the structure may show the parent alone.

Consider 4 molecules from patent EP2654730B1, “HIGH DRUG LOAD PHARMACEUTICAL FORMULATIONS COMPRISING DRONEDARONE AND ITS PHARMACEUTICALLY ACCEPTABLE SALTS” (KRKA, d.d., Novo mesto, priority 2010, dated 2012).

`CCCCc1oc2ccc(NS(C)(=O)=O)cc2c1C(=O)c1ccc(OCCCN(CCCC)CCCC)cc1.Cl` [API 1]: the “Particle size d90” value in data set [1] is listed as 5.1 µm. The dissolution rate result in data set [2] (compositions of examples 16A-D, 17A and 18A, compared with compositions prepared from API 2 or API 3) is recorded as “substantial lower dissolution rate”; in data set [2] (tablet composition of example 17, compared with same composition prepared from API 2) it was “substantial lower dissolution rate”. In data set [3], this molecule had a Specific surface area of 8.3 m^2/g.

In the case of `CCCCc1oc2ccc(NS(C)(=O)=O)cc2c1C(=O)c1ccc(OCCCN(CCCC)CCCC)cc1.Cl` [API 2], the “Particle size d90” value in data set [1] is listed as 7.1 µm. In data set [3], this molecule returned a Specific surface area of 6.2 m^2/g.

Regarding `CCCCc1oc2ccc(NS(C)(=O)=O)cc2c1C(=O)c1ccc(OCCCN(CCCC)CCCC)cc1.Cl` [API 3], the “Particle size d90” value in data set [1] was 7.4 µm. Further, the Specific surface area in data set [3] is 6.0 m^2/g.

As for `CCCCc1oc2ccc(NS(C)(=O)=O)cc2c1C(=O)c1ccc(OCCCN(CCCC)CCCC)cc1` [dronedarone hydrochloride, N-(2-butyl-3-(p-(3-(dibutylamino)propoxy)benzoyl)-5-benzofuranyl)methanesulfonamide], the solubility in data set [4] is 1 to 2 mg/mL.

For orientation: solubility means the dissolved amount per volume that the medium holds.
